The subject of this series is human hepatocyte growth factor receptor mRNA.
For “ISIS 155108: 2′-MOE gapmer, phosphorothioate backbone, sequence attctcgggacactaactga (antisense ATTCTCGGGACACTAACTGA; all phosphorothioate, sugars by position and methylation of C not given here; 2'-MOE gapmer)”, the “inhibition of human hepatocyte growth factor receptor expression” value (shortened to “inhibition”) is recorded as “at least 35%”. Under “ISIS 155109: 2′-MOE gapmer, phosphorothioate backbone, sequence agctcgctgttcaatttcag (antisense AGCTCGCTGTTCAATTTCAG; all phosphorothioate, sugars by position and methylation of C not given here; 2'-MOE gapmer)” stands “at least 35%”; under “ISIS 155110: 2′-MOE gapmer, phosphorothioate backbone, sequence tcgggacactaactgaattc (antisense TCGGGACACTAACTGAATTC; all phosphorothioate, sugars by position and methylation of C not given here; 2'-MOE gapmer)”, “at least 35%”; under “ISIS 155111: 2′-MOE gapmer, phosphorothioate backbone, sequence gttcggcagaatctggcttg (antisense GTTCGGCAGAATCTGGCTTG; all phosphorothioate, sugars by position and methylation of C not given here; 2'-MOE gapmer)”, “at least 35%”.

For “ISIS 155112: 2′-MOE gapmer, phosphorothioate backbone, sequence taggagtcttctcccttgca (antisense TAGGAGTCTTCTCCCTTGCA; all phosphorothioate, sugars by position and methylation of C not given here; 2'-MOE gapmer)”, the “inhibition” value was “at least 35%”.

For “ISIS 155113: 2′-MOE gapmer, phosphorothioate backbone, sequence ctaatgagttgatcatcata (antisense CTAATGAGTTGATCATCATA; all phosphorothioate, sugars by position and methylation of C not given here; 2'-MOE gapmer)”, the “inhibition” value is listed as “at least 35%”. On to “ISIS 155114: 2′-MOE gapmer, phosphorothioate backbone, sequence aattgttgctttcaaaggca (antisense AATTGTTGCTTTCAAAGGCA; all phosphorothioate, sugars by position and methylation of C not given here; 2'-MOE gapmer)”, for which the “inhibition” value is listed as “at least 35%”. Regarding “ISIS 155115: 2′-MOE gapmer, phosphorothioate backbone, sequence agttccttcctgcttcatgc (antisense AGTTCCTTCCTGCTTCATGC; all phosphorothioate, sugars by position and methylation of C not given here; 2'-MOE gapmer)”, the “inhibition” value is listed as “at least 35%”.

Regarding “ISIS 155116: 2′-MOE gapmer, phosphorothioate backbone, sequence aaatctttcatgatgattcc (antisense AAATCTTTCATGATGATTCC; all phosphorothioate, sugars by position and methylation of C not given here; 2'-MOE gapmer)”, the “inhibition” value was “at least 35%”. In the case of “ISIS 155117: 2′-MOE gapmer, phosphorothioate backbone, sequence gtagattgcaggcagacaga (antisense GTAGATTGCAGGCAGACAGA; all phosphorothioate, sugars by position and methylation of C not given here; 2'-MOE gapmer)”, the “inhibition” value is on record as “at least 35%”.

Values taken from US20040102622A1, “Modulation of hepatocyte growth factor receptor expression” (Isis Pharmaceuticals Inc., priority 2002, published 2004).
